Entries after “also recorded” stand apart in the source; their conditions may differ.
Columns and labels:
[1] = tested on: actin network in HeLa cells; type: cell-based, human
HeLa cells [2] = type: cell-based, human
B16F10 cells = type: cell-based
HeLa cells [3] = type: cell-based, human; remark: listed apart in the source
4T1 cells = type: cell-based
D2A1 cells = type: cell-based
Akt = type: cell-based, human
HeLa cells [4] = test: Removal of YopE1-138 appendage by T3SS-delivered TEV protease, Western blot of digitonin lysed HeLa cells; type: cell-based, human; conditions: coinfection, 2 h
From the text: HeLa cells in 6-well plates were infected at an MOI of 100 as described above. In case of coinfection with the TEV protease translocating Y. enterocolitica strain, the OD600 of the strains was set and the two bacterial suspensions were mixed in a tube at a ratio of 1:1 (if not otherwise indicated) before addition to the cells. At the end of the infection, the cells were washed twice with ice-cold PBS and collected by scraping in a small volume of ice-cold PBS. After centrifugation (16 000 rcf, 5 min, 4° C.) the pellet was dissolved in 0.002% digitonin supplemented with a protease inhibitor cocktail (Roche complete, Roche). The dissolved pellets were incubated for 5 minutes on ice and then centrifuged (16 000 rcf, 25 min, 4° C.). Supernatants were collected and analyzed for total protein content by […] (Pierce) before SDS PAGE and Western blotting using an anti-Myc (Santa Cruz, 9E1 1) or anti-Ink4C (Cell Signaling) antibody.

HeLa cells [5] = test: Apoptosis induction in HeLa cells by S. enterica aroA delivered murine tBid fusions (cleaved Caspase 3 p17 western blot); type: cell-based, human; conditions: 4 h, MOI of 100
zebrafish embryos = conditions: in vivo
p38 = type: cell-based, human
cAMP = type: cell-based, human
[6] = S. enterica aroA grown under SPI-1 T3SS inducing conditions
[7] = S. enterica aroA grown under SPI-2 T3SS inducing conditions

## YopEi_i38-SopE-Myc: YopE1-138 fusion with SopE and MycHis tag
[1]
  changes in the actin network / F-actin rearrangements: triggered massive F-actin rearrangements

## YopEi_i38-BID: YopE1-138 fusion with human BH3 interacting-domain death agonist (BID)
HeLa cells [2]
  apoptosis / cell death induction: failed to induce apoptosis

## YopEi_i38-SptP: YopE1-138 fusion with SptP, GTPase activating protein for Cdc42
[1]
  effect of co-infection on YopE1-138-SopE-Myc triggered F-actin rearrangements: abolished this effect in a dose dependent manner

## BH3 domain of murine BID: YopE1-138 fusion with BH3 domain of murine tBID, codon optimized for Y. enterocolitica
B16F10 cells
  cell death / apoptosis induction: induce massive cell death; also recorded: induces massive apoptosis
HeLa cells [3]
  cell death / apoptosis induction: induce massive cell death; also recorded: induces massive apoptosis
4T1 cells
  cell death / apoptosis induction: induce massive cell death; also recorded: induces massive apoptosis
D2A1 cells
  cell death / apoptosis induction: induce massive cell death; also recorded: induces massive apoptosis

## YopEi_i38-SopB: YopE1-138 fusion with Salmonella type III effector SopB
Akt
  phosphorylation of Akt at T308 and S473: induced a strong phosphorylation of Akt at T308 and 5473

## YopEi_i38-SopE: YopE1-138 fusion with SopE from Salmonella enterica
Akt
  phosphorylation of Akt at T308 and S473: had no effect on Akt
[1]
  changes in the actin network / F-actin rearrangements: induced dramatic changes in the actin network
  time of first changes in the actin cytoskeleton: 2 min p.i.

## TEV protease: TEV protease (S219V variant) fused to YopE1-138, delivered via T3SS
HeLa cells [4]
  function of TEV protease delivered via T3SS: functional

## murine BAX: YopE1-138 fusion with BH3 domain of murine BAX, codon optimized for Y. enterocolitica
B16F10 cells
  cell death / apoptosis induction: induce massive cell death; also recorded: induces massive apoptosis
HeLa cells [3]
  cell death / apoptosis induction: induce massive cell death; also recorded: induces massive apoptosis
4T1 cells
  cell death / apoptosis induction: induce massive cell death; also recorded: induces massive apoptosis
D2A1 cells
  cell death / apoptosis induction: induce massive cell death; also recorded: induces massive apoptosis

## Murine tBID fused to full length SteA: murine tBID fused to full length SteA, delivered by S. enterica
HeLa cells [5]; [6]
  apoptosis induction (CASP3 p17 production): lead to apoptosis induction in HeLa cells
HeLa cells [5]; [7]
  apoptosis induction (CASP3 p17 production): lead to apoptosis induction in HeLa cells

## murine tBID: YopE1-138 fusion with murine tBID codon optimized for Y. enterocolitica
B16F10 cells
  cell death / apoptosis induction: triggered cell death; also recorded: induces massive apoptosis
HeLa cells [3]
  cell death / apoptosis induction: triggered cell death; also recorded: induces massive apoptosis
4T1 cells
  cell death / apoptosis induction: triggered cell death; also recorded: induces massive apoptosis
D2A1 cells
  cell death / apoptosis induction: triggered cell death; also recorded: induces massive apoptosis

## YopEi_i38-z-BIM: YopE1-138 fusion with zebrafish apoptosis inducer BIM
HeLa cells [2]
  apoptosis / cell death induction: showed clear signs of cell death
Zebrafish embryos
  automated image analysis of Caspase 3 p17 staining near bacteria: induce apoptosis in nearby cells by far more than control bacteria do
  cleaved CASP3 (apoptosis) in regions surrounding the bacteria: strong increase in presence of cleaved CASP3; also recorded: induces apoptosis in zebrafish embryos

## YopEi_i38-OspF: YopE1-138 fusion with S. flexneri type III effector OspF
p38
  TNFa-induced p38 phosphorylation: TNFa-induced phosphorylation was abolished

## BepA: YopE1-138 fusion with full length type IV effector BepA from B. henselae
cAMP
  cAMP production: triggered cAMP production in expected amounts

## BepG: YopE1-138 fusion with the Bid domain of the B. henselae effector BepG
cAMP
  cAMP production: failed to induce cAMP

## BepAE30 5-end: YopE1-138 fusion with BepA E305-end containing the C-terminal Bid domain
cAMP
  cAMP production: triggered cAMP production in expected amounts

B1: SteAi_2o fused murine tBID: murine tBID fused to the 20 N-terminal amino acids of SteA, delivered by S. enterica (protein)
chain: MPYTSVSTYARALSGNKLPHGTGSQASRSFNQGRIEPDSESQEEIIHNIARHLAQIGDEMDHNIQPTLVRQLAAQFMNGSLSEEDKRNCLAKALDEVKTAFPRDMENDKAMLIMTMLLAKKVASHAPSLLRDVFHTTVNFINQNLFSYVRNLVRNEMD
modifications: SteA1-20 - S. enterica codon optimized murine t-BID
notes: murine tBID fused to the 20 N-terminal amino acids of SteA, delivered by S. enterica
HeLa cells [5]; [6]
  apoptosis induction (CASP3 p17 production): failed to induce apoptosis
HeLa cells [5]; [7]
  apoptosis induction (CASP3 p17 production): failed to induce apoptosis

Source: patent US12091670B2, “Bacteria-based protein delivery” (Universitaet Basel, priority 2014, dated 2024)
